The record followed here is US20030070184A1, “LIGANDS FOR DISCOIDIN DOMAIN RECEPTOR TYROSINE KINASES AND COMPLEXES THEREOF” (priority 1999, published 2003).

Where a SMILES comes first, the peptide text is derived from it. [ ]: non-standard residue; d: D form. pY = N[C@@H](Cc1ccc(OP(=O)(O)O)cc1)C(=O)O

In one test the target is T1, Shc PTB domain (Homo sapiens, UniProt P29353).
T1 construct: the PTB domain fusion construct comprises amino acids 1-225 of human p52 Shc; made in house; host or cells: E. coli
T1 sequence (P29353 1-225 isoform P29353-2): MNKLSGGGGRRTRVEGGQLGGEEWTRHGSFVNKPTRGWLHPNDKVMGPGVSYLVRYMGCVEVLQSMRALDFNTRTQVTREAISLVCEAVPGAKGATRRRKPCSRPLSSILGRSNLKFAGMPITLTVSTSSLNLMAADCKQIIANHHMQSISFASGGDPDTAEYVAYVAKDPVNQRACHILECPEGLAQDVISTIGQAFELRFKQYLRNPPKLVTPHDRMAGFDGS
Briefly: Surface plasmon resonance competition: GST-Shc PTB domain binding to immobilized middle T antigen phosphopeptide. The following applies: BIAcore, soluble competing phosphopeptide; read-out: IC50, inhibition of binding of the Shc PTB domain to the middle T antigen phosphopeptide. The method, then: Surface plasmon resonance—experiments were done with a BIAcore instrument (Pharmacia). A phosphopeptide corresponding to the NPXY sequence in the polyomavirus middle T antigen (mT) (LSLLSNPTpYSVNSK) was absorbed to the surface of a biosensor chip. Binding of soluble GST-Shc PTB domain fusion protein to the mT peptide was measured in the presence or absence of competing soluble phosphopeptides based on the sequences around Tyr 513 of DDR1b or Tyr 490 of the NGFR (HIIENPQpYFSD) (21).
Experiments were done with a BIAcore instrument (Pharmacia). A phosphopeptide corresponding to the NPXY sequence in the polyomavirus middle T antigen (LSLLSNPTpYSVMRSK) was absorbed to the surface of a biosensor chip. Binding of soluble GST-Shc PTB domain fusion protein to the middle T peptide was measured in presence or absence of competing soluble phosphopeptides based on the sequences around tyrosine 513 of DDR1b (ALLLSNPApYRLLLA) or tyrosine 490 of the NGF receptor (HIIENPQpYFSD).

Test [1] has as its target T2, Shc PTB domain binding to DDR1b (Homo sapiens, UniProt P29353).
T2 construct: the PTB domain fusion construct comprises amino acids 1-225 of human p52 Shc; made in house; host or cells: GST-Shc PTB: E. coli; DDR1b: lysate of transiently transfected, orthovanadate-treated 293 cells
T2 sequence (P29353 1-225 isoform P29353-2): T1 sequence (P29353 1-225 isoform P29353-2)
Put plainly: GST-Shc PTB pull-down of tyrosine phosphorylated DDR1b from 293 lysates, competition by phosphopeptide. The following applies: lysates of transfected, orthovanadate-treated 293 cells. On the procedure: The results presented above raise the possibility that the Shc PTB domain binds to phosphorylated Tyr 513, which lies within the motif LLSNPAY in the DDR1b juxtamembrane insert. To test whether phosphorylation of Tyr 513 might form a PTB-binding site, a 14-mer phosphopeptide with the sequence ALLLSNPApYRLLLA was synthesized, corresponding to residues 505-518 of DDR1b. The ability of this phosphopeptide to bind the Shc PTB domain was analysed using a competition assay, in which the capacity of GST-Shc PTB fusion protein to bind tyrosine phosphorylated DDR1b from lysates of transfected 293 cells was measured in the presence of increasing amounts of the Tyr 513 phosphopeptide. […] To quantitate this interaction more precisely, surface plasmon resonance technology was used, in which soluble DDR1b phosphopeptide was employed to inhibit binding of the GST-Shc PTB fusion protein to a polyomavirus middle T antigen phosphopeptide, immobilized on a biosensor chip (21).
FIGS. 2A and 2B. Phosphorylation of Tyr 513 in the MCK10b (DDR1b) juxtamembrane insert forms a Shc PTB-binding site. […] Bound protein was detected by immunoblotting with antibodies to MCK10. […]

In a further test the target is T3, DDR1b (Homo sapiens, UniProt Q08345).
T3 construct: endogenous in cells; host or cells: T-47D human mammary carcinoma cells (A431 also named)
T3 sequence (Q08345 19-913): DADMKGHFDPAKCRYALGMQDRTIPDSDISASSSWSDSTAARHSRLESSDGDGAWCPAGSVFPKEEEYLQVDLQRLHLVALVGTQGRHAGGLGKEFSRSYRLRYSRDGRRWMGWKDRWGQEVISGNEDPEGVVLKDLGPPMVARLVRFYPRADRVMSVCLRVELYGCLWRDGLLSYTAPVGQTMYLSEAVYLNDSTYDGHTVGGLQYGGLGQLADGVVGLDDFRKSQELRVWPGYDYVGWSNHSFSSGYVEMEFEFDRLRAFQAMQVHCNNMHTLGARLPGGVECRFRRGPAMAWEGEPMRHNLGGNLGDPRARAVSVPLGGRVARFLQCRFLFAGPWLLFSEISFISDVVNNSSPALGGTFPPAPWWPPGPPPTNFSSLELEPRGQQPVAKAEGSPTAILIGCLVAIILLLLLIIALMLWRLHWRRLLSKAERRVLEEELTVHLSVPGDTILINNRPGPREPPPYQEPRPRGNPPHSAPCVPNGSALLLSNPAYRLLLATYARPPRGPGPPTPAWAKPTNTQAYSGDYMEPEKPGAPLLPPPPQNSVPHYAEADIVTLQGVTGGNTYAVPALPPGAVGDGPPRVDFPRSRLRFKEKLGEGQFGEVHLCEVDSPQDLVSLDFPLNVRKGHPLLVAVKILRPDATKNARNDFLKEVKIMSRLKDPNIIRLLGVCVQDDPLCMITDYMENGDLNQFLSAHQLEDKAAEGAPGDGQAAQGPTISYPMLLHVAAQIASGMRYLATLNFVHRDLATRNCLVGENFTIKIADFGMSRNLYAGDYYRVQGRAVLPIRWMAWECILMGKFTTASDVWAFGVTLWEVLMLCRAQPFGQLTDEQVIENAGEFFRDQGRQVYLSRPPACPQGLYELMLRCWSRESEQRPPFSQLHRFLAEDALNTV
Briefly: Tyrosine phosphorylation of endogenous DDR1b in carcinoma cells (T-47D; A431), immunoprecipitation and anti-phosphotyrosine blot. The format is cell-based. The following applies: PDGF or EGF 5 min, collagen type I overnight. The source says:
To investigate the effects of collagen on cells that express endogenous DDR tyrosine kinases, the mammary carcinoma cell line T-47D was employed. Previous results have shown that DDR1 is highly expressed in human carcinoma cell lines, in particular, the breast cancer cell lines BT-20, MDA-MB-175 and T-47D (1) (Perez et al., 1996). […] The time course of endogenous DDR1b tyrosine phosphorylation in T-47D cells was even slower than in 293 cells, with maximal activation being achieved only after stimulation for 18 hours.
To further investigate the role of different types of collagen in the activation of DDR1 and DDR2, collagen types I, II, III and V purified from human placenta and collagen type II from bovine tracheal cartilage were obtained. To test their ability to induce receptor tyrosine phosphorylation, 293 cells overexpressing DDR1 or DDR2 were employed. […] The various types of collagen were also tested for their ability to stimulate tyrosine phosphorylation of endogenous DDR1b present in T-47D cells. For this purpose, DDR1b was immunoprecipitated from lysates of stimulated T-47D cells and analyzed by Western blotting with anti-phosphotyrosine antibodies. […] As previously shown, DDR1 tyrosine phosphorylation could also be activated by treating cells with 1 mM orthovanadate, an inhibitor of tyrosine phosphatases. Furthermore, gelatin which contains heat denatured collagen was tested for its capacity to induce DDR1b tyrosine phosphorylation.
Integrins of the type α1β1 and α2β1 have long been known to be receptors for collagen. Therefore, tests were conducted to determine if these integrins are somehow involved in the activation of DDR1b. The mammary carcinoma cell line T-47D, which endogenously expresses the b-isoform of DDR1, was used. Monoclonal antibodies directed against the extracellular domains of integrins can block binding to collagen and therefore signaling of integrins. T-47D cells were treated with antibody A2-IIE10 against α2-integrin and antibody DE9 against β1-integrin (both from Upstate Biotechnology) in the absence or presence of 10 μg/ml collagen type I overnight. DDR1b or Shc were immunoprecipitated from cellular lysates and analyzed by Western blotting with antiphosphotyrosine antibody.
DDR1b and DDR2 were transfected into 293 cells and were stimulated with 10 µg/ml mouse collagen type I for different periods of time. (FIG. 9A and FIG. 9B) Total cellular lysates were probed with antiphosphotyrosine antibody. Maximal activation is seen 90 min after stimulation of DDR1b (FIG. 9A) and DDR2 (FIG. 9B). (FIG. 9C) Human mammary carcinoma T-47D cells were cultivated on 10 cm dishes to confluence and starved in 0.5% serum overnight. Cells were stimulated with collagen type I for various periods of time and lysed. DDR1b was immunoprecipitated from the lysates and analyzed by Western blotting with antiphosphotyrosine antibody. Maximal phosphorylation of DDR1b is seen after stimulation for 18 h. An unidentified, tyrosine phosphorylated protein with an apparent molecular weight of 115 kDa is copurified in the immunoprecipitations. […] Prolonged stimulation with collagen increases the processing of DDR1b in T-47D cells, indicated by an additional 62 kDa band. (FIGS. 9E and 9F) DDR1b was immunoprecipitated from overexpressing 293 cells (E) and T-47D (FIG. 9F) cells and subjected to an in vitro kinase reaction. The incorporation of [^32P]-phosphate is monitored by SDS-PAGE followed by autoradiograpy.

In a further test the test system is MAPK. Briefly: MAPK activation (mobility shift) in T-47D or HT 1080-DDR2 cells. Format: cell-based, human. The following applies: T-47D or HT 1080 overexpressing DDR2; PDGF or EGF 5 min, collagen type I overnight. On the procedure:
T-47D or HT 1080 overexpressing DDR2 cells were stimulated with PDGF or EGF for 5 min, with collagen type I overnight and with a combination of EGF/collagen or PDGF/collagen. […] Furthermore, activation of MAPK by EGF is not influenced by simultaneous activation of DDR receptors.

A further test relates to MMP-1. Briefly: MMP-1 expression in HT 1080 cells (Western blot of conditioned media). The following applies: collagen type I 10 μg/ml, or TPA. The format is cell-based, human. The method, then: The full length cDNA of DDR2 was stabilely expressed in HT 1080 cells using a retroviral expression construct (pLXSN). Neomycin resistant clones were tested for DDR2 expression. Parental and DDR2 overexpressing cells were cultivated in serum free medium and stimulated with 10 μg/ml collagen type I for various periods of time. The conditioned medium was 20-fold concentrated and analyzed for the presence of MMP-1 by Western blotting with the monoclonal antibody 41-IE5 (Oncogene Research Products; Cambridge, Mass.).
For orientation: Immunoblotting shows a protein as a band on a membrane.

On to `CC(C)C[C@H](NC(=O)[C@H](C)N)C(=O)N[C@@H](CC(C)C)C(=O)N[C@@H](CC(C)C)C(=O)N[C@@H](CO)C(=O)N[C@@H](CC(N)=O)C(=O)N1CCC[C@H]1C(=O)N[C@@H](C)C(=O)N[C@@H](Cc1ccc(OP(=O)(O)O)cc1)C(=O)N[C@@H](CCCNC(=N)N)C(=O)N[C@@H](CC(C)C)C(=O)N[C@@H](CC(C)C)C(=O)N[C@@H](CC(C)C)C(=O)N[C@@H](C)C(=O)O` [DDR1b phosphopeptide, ALLLSNPApYRLLLA] (H-ALLLSNPA[pY]RLLLA-OH; N-terminus and C-terminus assumed), for which the IC50 (commonly the point on the concentration scale where inhibition reaches its midpoint) on Shc PTB domain was around 800 nM. Besides, in test [1], the “phosphopeptide concentration for full inhibition of Shc PTB binding to DDR1b” value came out at 2 µM and the “phosphopeptide concentration that inhibited binding of the Shc PTB domain to DDR1b” value is 100 nM.
On to PDGF [reference compound], for which the “activation of DDR1b in T-47D cells” value on DDR1b is “not”. Also, the MAPK activation entry with MAPK is given as “not”.
As for `CCCCCCCCCCCCCC(=O)O[C@@H]1[C@@H](C)[C@@]2(O)[C@@H](C=C(CO)C[C@]3(O)C(=O)C(C)=C[C@@H]23)[C@@H]2C(C)(C)[C@]12OC(C)=O` [TPA, phorbol 12-myristate 13-acetate], the “expression of MMP-1 in HT 1080 cells overexpressing DDR2” value in the test with MMP-1 (4 days) is reported as “induced”. Besides, the “expression of MMP-1 in parental HT 1080 cells” value in the test with MMP-1 is “induced”.
